# According to PubChem BioAssay (NCI):
#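 Following 48 hours of exposure in 96-well plates, responses at five concentrations were used to interpolate endpoints linearly. GI50: concentration for 50% inhibition of growth. TGI is the concentration that stops growth completely.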
# Experiments:
# Assay in all cases: NCI-60 cell line screen, 48 h
# ACHN renal = system: ACHN renal
# HCT-15 colon = system: HCT-15 colon
# NCI-H23 lung = system: NCI-H23 lung
# OVCAR-5 ovarian = system: OVCAR-5 ovarian
# SF-295 CNS = system: SF-295 CNS
# SR leukemia = system: SR leukemia
# SW-620 colon = system: SW-620 colon
# UACC-62 melanoma = system: UACC-62 melanoma
# HOP-92 NSCLC = system: HOP-92 NSCLC
# PC-3 prostate = system: PC-3 prostate
Structure (SMILES),TGI (ACHN renal) [µM],TGI (HCT-15 colon) [µM],TGI (NCI-H23 lung) [µM],TGI (OVCAR-5 ovarian) [µM],TGI (SF-295 CNS) [µM],TGI (SR leukemia) [µM],TGI (SW-620 colon) [µM],TGI (UACC-62 melanoma) [µM],GI50 (ACHN renal) [µM],GI50 (HCT-15 colon) [µM],GI50 (HOP-92 NSCLC) [µM],TGI (HOP-92 NSCLC) [µM],GI50 (NCI-H23 lung) [µM],GI50 (SF-295 CNS) [µM],GI50 (SR leukemia) [µM],GI50 (SW-620 colon) [µM],TGI (PC-3 prostate) [µM],GI50 (OVCAR-5 ovarian) [µM],GI50 (PC-3 prostate) [µM],GI50 (UACC-62 melanoma) [µM]
NCCCCCCNCc1cccc2ccccc12,> 100,> 100,> 100,> 100,> 100,> 100,> 100,> 100,,,,,,,,,,,,
CC1=C(C)C2(O)C(=C(C)C1=O)/C(=C(/O)c1ccccc1)c1nc3ccccc3n12 (centres undefined),34.4,46.5,29.9,,33.2,37.6,> 100,,16.4,19.3,16.1,41.7,15,15.5,10.9,29.4,,,,
COC1OC(C)C2OC(C)(C)OC2C1OC(C)=O (centres undefined),> 100,> 100,> 100,> 100,> 100,> 100,> 100,> 100,,,,> 100,,,,,,,,
CC12CCC3c4cc(Br)c(O)c(Br)c4CCC3C1CCC2O (centres undefined),73.7,,,> 100,33.4,,33,33.1,,,,,,,,,> 100,,,
Cc1ccc(C)c(NC(=O)CC2SC(=Nc3ccccc3Cl)NC2=O)c1 (centres undefined),> 100,> 100,> 100,> 100,> 100,55.4,> 100,> 100,,,,> 100,,,,,,,,
C=CCOC(=O)C1CCC(=O)N1C(=O)C(Cl)Cl (centres undefined),> 100,> 100,> 100,> 100,> 100,,> 100,> 100,,,,> 100,,,,,,,,
COc1cc2c(cc1C1=NC(C)(C)CO1)OCO2,> 100,> 100,> 100,,> 100,> 100,> 100,> 100,,,,> 100,,,,,,,,
CN(C)CCNC(=O)c1cccc2ccc(-c3ccc(-c4ccccc4)cc3)nc12,12.8,4.14,16.6,13.9,4.03,4.64,4.74,32.2,,,,11.8,,,,,,,,
C[C@@H]1COCCN1c1cc(C2([S@@](C)(=N)=O)CC2)nc(-c2ccnc3[nH]ccc23)n1,> 51.3,> 100,45.2,> 100,32.5,,> 100,36.6,2.17,10,1.56,15.4,3.3,3.35,,8,> 100,5.11,10.3,4.29
CCn1c2c(c3ccccc31)C(c1ccccc1)CC1C(=O)N(c3ccccc3)C(=O)C21 (centres undefined),> 100,> 100,> 100,> 100,> 100,,> 100,> 100,,,,75.7,,,,,,,,
CCCCCCCCCCCCCC(=O)CSCCNC(=O)CCNC(=O)[C@@H](O)C(C)(C)COP(=O)(O)OP(=O)(O)OCC1OC(n2cnc3c(N)ncnc32)C(O)C1OP(=O)(O)O (some centres undefined),38,42.7,42,83.1,27.3,,55.5,29.5,,,,24.5,,,,,,,,
CCOC(=O)C(CNc1ccc(O)cc1)NC(=O)c1ccccc1 (centres undefined),> 100,> 100,> 100,> 100,> 100,> 100,> 100,> 95,,,,> 100,,,,,,,,
COc1ccc(N(/C=C/C(=O)C(F)(F)F)CC(=O)c2ccc(Cl)cc2)cc1,27.6,26.8,35,38.5,31.7,,41,20.7,14.5,13,15.9,41.4,15.3,13.6,,19.2,32.8,18.5,14.2,8.34
CC(C)(C)OC(=O)c1cccnc1/C=N/O,> 100,> 100,> 100,> 100,> 100,> 100,> 100,> 100,,,,> 100,,,,,,,,
C/C=C/COC(=O)CO[N+](=O)[O-],> 100,> 100,> 100,> 100,> 100,> 100,> 100,,,,,> 100,,,,,,,,
C[C@]12CCNC(=O)C=C1CC[C@@H]1C2CC[C@@]2(C)C1CC[C@@H]2OC(=O)COc1ccc(N(CCCl)CCCl)cc1 (some centres undefined),11.2,13.1,20.2,29.5,30.6,15.7,16.5,6.41,,,,23.3,,,,,,,,
CC(=O)c1cc(C(=O)c2ccc3c(c2)Sc2ccccc2N3)c2c(C)cccn12,> 100,> 100,> 100,> 100,15.8,,> 100,38.1,1.42,0.294,0.767,22.6,0.611,0.188,,0.265,> 100,0.63,0.321,0.145
Cn1c(=O)c2[nH]cnc2n(CC(N)=O)c1=O,> 100,> 100,> 100,,,> 100,> 100,> 100,,,,> 100,,,,,,,,
COc1cc(-n2ccnc2)cc(OC)c1OC,> 100,> 100,> 100,> 100,63.1,,> 100,> 100,34.6,40,72.6,> 100,> 100,20.9,,> 100,> 100,> 100,50,36
CCN(CC)CCn1[nH]c2c3ccc(=O)cc3sc3c(NCCN)ccc1c32,2.54,16.7,,4.87,8.07,1.71,4.77,1.48,,,,3.96,,,,,,,,
